Measurements as given in patent US20160011208A1, “ASSAY FOR POLYPEPTIDE AGGREGATION USING MICRODROPLETS” (priority 2013, published 2016).

Molecular target: T1, Aβ1-42 (Homo sapiens, UniProt P05067)
T1 construct: Scyllo-inositol and amyloid monomers (Aβ1-42) were compartmentalised in droplets
Experiment: Inhibition of Aβ1-42 aggregation in microdroplet gel beads, flow cytometric analysis
Format: biochemical
Settings: HF488Aβ1-42 with scyllo-inositol in droplets, amyloid:inhibitor ratios 1:1 or 1:20, versus control without inhibitor; flow cytometry (FIG. 12)
Experimental: FIG. 12: Inhibition of aggregation by scyllo-inositol. Scyllo-inositol and amyloid monomers (Aβ1-42) were compartmentalised in droplets and incubated at ratios of amyloid:inhibitor of 1:1 (central bar at each time point) or 1:20 (right-hand bar at each time point), respectively. The left-hand bar at each time point represents a control with no scyllo-inositol.
A microfluidic droplet generator with a flow focusing geometry was used to generate water-in-oil droplets. The contents of the droplets were determined by the content of the supply stream: peptide buffer solution was mixed with agarose gel solution and trapped by HFE7500 oil containing a surfactant, e.g. 0.5% (w/w) fluorous tri-block copolymers. […]
Since the processed gel beads were stored in aqueous buffer solution, they could be tested via flow cytometry or FACS, a technique requiring aqueous carrier fluid, in order to assess the aggregation process and compare different intensity of aggregates inside agarose beads. Incubated and washed agarose beads with Hilyte488-labelled Aβ1-40 aggregates were sent to FACS and the beads with fluorescent aggregates were counted. […] The percentage of beads containing aggregates was calculated using the program Summit. […]

T1 sequence (P05067 672-713 limits assumed): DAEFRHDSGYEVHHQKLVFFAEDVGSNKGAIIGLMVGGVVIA

O[C@H]1[C@H](O)[C@@H](O)[C@H](O)[C@@H](O)[C@@H]1O [scyllo-inositol]
inhibition of aggregation of Aβ1-42 monomers in gel beads: inhibition of aggregation by scyllo-inositol was detected
